Assay results taken from patent publication US10463710B2, “Short synthetic peptide for the treatment and/or prophylaxis of autoimmune and inflammatory disorders” (MacKay Memorial Hospital, priority 2015, dated 2019).

Key:
[1] = system: LPS-induced arthritis; test: Rat model of LPS-induced arthritis; assay type: in vivo, Sprague-Dawley rats; conditions: 7-mer 1 mM intraarticular along with LPS, 3 days, FIG. 4
Experimental: In this study, acute arthritis was induced by direct injection of lipopolysaccharide (LPS) into rat joints in accordance with the procedures described by Pan R Y et al (J Virol. (1999) 73, 3410-3417). Briefly, adult (about 10 weeks old) male Sprague-Dawley rats (initial body wt=312±11 g) were anesthetized by an intraperitoneal injection of a Xylazine (10 mg/kg) and then randomly assigned to experimental groups; their right knees were later treated with a single intraarticular injection of 25 μl of 5% hyaluronic acid (HA) containing LPS (2 μg and 10 μg) or LPS+7-mer. 7-mer (10 mM stock) was dissolved in 25 μl of 5% HA to final concentration 1 mM. On day 2, the group LPS+7-mer or LPS+7-mer analogue was further treated with 7-mer by a single intraarticular is injection. On day 3, the knee joints were dissected and fixed in a 4% paraformaldehyde (PFA) solution and then decalcified with Shandon TBD-2 decalcifier (Thermo Scientific, Logan, Utah). The joints were then sectioned mid-sagittally and embedded in paraffin blocks. Sections (5 μm in thickness) were longitudinally cut, and stained with hematoxylin and eosin (H&E).
Rheumatoid arthritis (RA) is a chronic inflammatory disease characterized by an inflammation of the synovium leading to the destruction of joint cartilage and eventually the destruction of joint function. […]

[2] = system: OVA-induced allergic asthma; test: Mouse model of OVA-induced allergic asthma; assay type: in vivo, BALB/c mice; conditions: 7-mer 100 μM intranasal twice a day, vs OVA challenged mice, FIG. 6B
Experimental: BALB/c mice (4- to 5-weeks old females) were sensitized intraperitoneally with 1 μg of ovalbumin (OVA) and 200 μl of 1.5% aluminum hydroxide on days 0 and 7, respectively; and then challenged three times by intranasal injection with 250 μg of OVA on days 21, 22 and 23. Control mice were given OVA with ALUM in sensitization stages, and PBS in place of OVA in challenge stages. For treatment, 7-mer analogue was mixed with 1% CMC eye drop to a concentration 100 μM. On day 20 and after the OVA challenge (day 21), the mice were randomly assigned to two experimental groups (n=6 per group) is and the nasal was injected with 20 μl of 7-mer or vehicle drop twice a day for 4 days (to day 23). Twenty-four hrs after the final challenge with OVA (day 24), mice were euthanized and their eyes were harvested, fixed overnight in 4% paraformaldehyde and embedded in paraffin.
In this example, we investigate the efficacy of the present synthetic peptide on allergic asthma by use of the well-characterized murine model of allergic airway disease, employing ovalbumin as the antigen. The experimental murine asthma model was established in accordance with the procedures described in the section of “Materials and Methods,” and as depicted in panel A of FIG. 6.

[3] = system: HOCl-induced skin fibrosis; test: Mouse model of HOCl-induced systemic sclerosis (skin fibrosis); assay type: in vivo, BALB/c mice
Experimental: Induction of SSc have been successfully established by subcutaneously injection with prooxidative agents (e.g., hypochlorous acid, HOCl) in BALB/c mice every day for 6 weeks (Servettaz A et al., J Immuno. 2009; 182: 5855).
To produce HOCl, 166 μl of NaClO solution (2.6% as active chlorine) was added to 11.1 ml of KH2PO4 solution (100 mM; pH 7.2). The concentration of HOCl was determined by spectrophotometry at 292 nm (molar absorption coefficient 350 M^−1 cm^−1). Female BALB/c mice (6 weeks old) were randomly distributed into experimental and control groups (n=6 per group). A total of 100 μl of HOCl solution mixed with 7-mer vehicle or 7-mer (final concentration 0.2 mM) was injected subcutaneously into the shaved back of the mice, using a 27-gauge needle, every day for 6 wks. Subcutaneous injection of phosphate-buffered saline (PBS) was served as normal control. Mice were euthanized and their skins were harvested, fixed overnight in 4% paraformaldehyde and embedded in paraffin. […]
Approximately 20% skin homogenate was used to determine the levels of soluble collagen. The collagen levels were quantified using a Sircol™ soluble collagen assay (Biocolor Ltd., Newtownabbey) according to the manufacturer's protocols. […] Relative absorbance was measured at 540 nm. […]

[4] = in vitro; assay type: cell-based, murine; conditions: mouse
[5] = system: OVA-induced allergic conjunctivitis; test: Mouse model of OVA-induced allergic conjunctivitis; assay type: in vivo, BALB/c mice; conditions: 7-mer 100 μM eye drop twice a day for 4 days, FIG. 5C
Experimental: BALB/c mice (4- to 5-weeks old females) were sensitized intraperitoneally with 1 μg of ovalbumin (OVA) and 200 μl of 1.5% aluminum hydroxide (ALUM) on days 0 and 7, respectively; and then challenged two times topically in the conjunctival sac with 250 μg of OVA respectively on days 15 and 18. Control mice were given OVA with ALUM in sensitization stages, and PBS in place of OVA in challenge stages. For treatment, 7-mer was mixed with 1% CMC eye drop to a concentration 100 μM. After the OVA challenge (day 15), the mice were randomly assigned to two experimental groups (n=6 per group) and the eye was treated with 20 μl of 7-mer or vehicle eye drop twice a day for 4 days (to day 18). Twenty-four hrs after the final challenge with OVA (day 19), mice were euthanized and their eyes were harvested, fixed overnight in 4% paraformaldehyde and embedded in paraffin. To evaluate the eosinophilic infiltration, sections (5 μm) including eyelids were de-paraffinized and stained with acid-giemsa for detection of eosinophils.
Allergic conjunctivitis (AC) is characterized by conjunctival eosinophilic infiltration. […]

CC(=O)N[C@@H](CC(=O)O)C(=O)N[C@@H](CC(C)C)C(=O)N[C@@H](Cc1ccc(O)cc1)C(=O)N[C@@H](CCCNC(=N)N)C(=O)N[C@H](C(=O)N[C@@H](CCCNC(=N)N)C(=O)N[C@@H](CO)C(N)=O)C(C)C [7-mer, NH2-Asp-Leu-Tyr-Arg-Val-Arg-Ser-COOH]
inflammation in the knee (synoviocyte proliferation, leukocyte infiltration, H&E) [1]: significantly attenuated
inflammatory cell infiltration (peribronchial, perivascular; H&E) [2]: significantly reduced
mucus secretion (PAS staining) [2]: markedly reduced
level of dermal collagen (Masson's trichrome) ([3]; 7-mer 0.2 mM s.c. with HOCl daily for 6 wks, vs HOCl/vehicle, FIG. 3A): significant decrease
collagen content of skin ([3]; 7-mer treated SSc mice, HOCl-treated SSc mice 169.9±7.75, FIG. 3B): 99.0±5.43 μg collagen/mg skin
viability at 24 h, 20 μM ([4]; Rar264.7 cell viability): 55 ± 3.66%
viability at 24 h, 20 μM ([4]; Raw264.7 cell viability): 55.7 ± 4.24%
infiltration of eosinophils in the conjunctiva [5]: decreased significantly
